Laboratory results taken from patent US6372297B1, “Wood preservative oxathiazines” (Uniroyal Chemical Company, Inc., priority 1993, dated 2002).
In brackets after ≈: the same amount, converted by molar mass. Like-named read-outs stand apart in the source and are kept apart here.

What was measured:
[1] = system: blue-stain fungi and molds; test: Activity against blue-stain fungi and molds in a stick test (threshold concentrations); settings: beech sticks, 22° C., 90% relative humidity; for Threshold concentration (ppm), A. niger, score 0 / Threshold concentration (ppm), Aureobasidium, score 0 / Threshold concentration (ppm), Sclerophoma, score 0 / Threshold concentration (ppm), Trichoderma, score 0: minimum concentration to obtain score 0; for Threshold concentration (ppm), A. niger, score 1-2 / Threshold concentration (ppm), Aureobasidium, score 1-2 / Threshold concentration (ppm), Sclerophoma, score 1-2 / Threshold concentration (ppm), Trichoderma, score 1-2: minimum concentration to obtain score 1-2
Experimental: Representative compounds of this invention were dissolved in 50% ethanol. Each compound was then diluted serially using 50% ethanol. […] After three (3) hours, the solutions containing the test compounds were poured off and the treated sticks were allowed to dry in a sterile laminar air flow. Each treated stick was then placed in a Petri dish which had been previously seeded with inoculum. Two drops of a test fungal or spore suspension were pipetted onto the upper surface of each treated stick. The Petri dishes containing the treated sticks were incubated at 22° C. and 90% relative humidity. The treated sticks were evaluated after there was sufficient growth of fungus on control sticks (i.e., untreated sticks) incubated in the same manner. The following score system was used: 0: Stick free of fungal/mold growth 1: Traces of fungal growth on the stick 2: Slight growth (5 to 25% of the surface covered with fungal growth) 3: Moderate growth (25 to 50% covered with fungal growth) 4. Vigorous to maximum fungal growth (more than 50% growth) […]

[2] = system: molds and blue-stain fungi; test: In vitro activity against molds and blue-stain fungi, poison plate assay (MIC); format: cell-based; settings: malt extract agar, complete inhibition
Experimental: The effect of the representative compounds on the growth of certain molds and blue-strain fungi were determined using a poison plate assay according to the following procedure: The solutions of the representative compounds prepared above were further diluted with sterile water to desired concentrations and poured into Petri dishes. Malt extract agar medium was then added aseptically to the Petri dishes and to Petri dishes containing no compound (controls). The Petri dishes were then shaken to provide a uniform distribution of the agar medium. Each Petri dish containing compound and each control Petri dish, was then inoculated with a fungus and incubated for a period of time sufficient to permit complete growth of the fungus in the respective control Petri dish. The Petri dishes containing compound were then examined to determine the amount of inhibition of fungi for each concentration of compound tested.

[3] = A. amstelodami, read-out: MIC (ppm) against A. amstelodami
[4] = Aspergillus niger, A. niger, read-out: MIC (ppm) against A. niger
[5] = Aspergillus versicolor, A. versicolor, read-out: MIC (ppm) against A. versicolor
[6] = Aureobasidium pullulans, A. pullulans, read-out: MIC (ppm) against A. pullulans
[7] = C. pilifera, read-out: MIC (ppm) against C. pilifera
[8] = Cladosporium cladosporioides, C. cladosporioides, read-out: MIC (ppm) against C. cladosporioides
[9] = Fusarium solani, F. solani, read-out: MIC (ppm) against F. solani
[10] = Geotrichum candidum, G. candidum, read-out: MIC (ppm) against G. candidum
[11] = P. purpurogenum, read-out: MIC (ppm) against P. purpurogenum
[12] = P. violacea, read-out: MIC (ppm) against P. violacea
[13] = Paecilomyces variotii, P. variotii, read-out: MIC (ppm) against P. variotii
[14] = S. atra, read-out: MIC (ppm) against S. atra
[15] = S. entoxylina, read-out: MIC (ppm) against S. entoxylina
[16] = Trichoderma viride, T. viride, read-out: MIC (ppm) against T. viride
[17] = U. atrum, read-out: MIC (ppm) against U. atrum

| Compound | Threshold concentration (ppm), A. niger, score 0 [1] [ppm] | Threshold concentration (ppm), A. niger, score 1-2 [1] | Threshold concentration (ppm), Aureobasidium, score 0 [1] [ppm] | Threshold concentration (ppm), Aureobasidium, score 1-2 [1] | Threshold concentration (ppm), Sclerophoma, score 0 [1] [ppm] | Threshold concentration (ppm), Sclerophoma, score 1-2 [1] | Threshold concentration (ppm), Trichoderma, score 0 [1] [ppm] | Threshold concentration (ppm), Trichoderma, score 1-2 [1] | MIC (ppm) against A. amstelodami ([2]; A. amstelodami) [ppm] | MIC (ppm) against A. niger ([2]; A. niger) [ppm] | MIC (ppm) against A. pullulans ([2]; A. pullulans) [ppm] | MIC (ppm) against A. versicolor ([2]; A. versicolor) [ppm] | MIC (ppm) against C. cladosporioides ([2]; C. cladosporioides) [ppm] | MIC (ppm) against C. pilifera ([2]; C. pilifera) [ppm] | MIC (ppm) against F. solani ([2]; F. solani) [ppm] | MIC (ppm) against G. candidum ([2]; G. candidum) [ppm] | MIC (ppm) against P. purpurogenum ([2]; P. purpurogenum) [ppm] | MIC (ppm) against P. variotii ([2]; P. variotii) [ppm] | MIC (ppm) against P. violacea ([2]; P. violacea) [ppm] | MIC (ppm) against S. atra ([2]; S. atra) [ppm] | further results |
| --- | --- | --- | --- | --- | --- | --- | --- | --- | --- | --- | --- | --- | --- | --- | --- | --- | --- | --- | --- | --- | --- |
| Cc1ccc2oc(C3=NOCC[S+]3[O-])nc2c1 (stereo not shown) [Compound 89] | 500 | 250-500 ppm | >1000 | 100-250 ppm | 250 | <50 ppm | 2500 | 1000-2500 ppm |  |  |  |  |  |  |  |  |  |  |  |  |  |
| N#Cc1ccc(C2=NOCCS2(=O)=O)s1 [Compound 58] | 500 | <250 ppm | >1000 | 500-1000 ppm | 100 | <50 ppm | 5000 | 1000-2500 ppm | 5 | 5 | 25 | 5 | 10 | 5 | 10 | 25 | 10 | 25 | 25 | 5 | MIC (ppm) against S. entoxylina ([2]; S. entoxylina): 5 ppm; MIC (ppm) against T. viride ([2]; T. viride): 25 ppm; MIC (ppm) against U. atrum ([2]; U. atrum): 10 ppm |
| [O-][S+]1CCON=C1c1cc2ccccc2s1 (stereo not shown) [Compound 87] | 1000 | 250-500 ppm | 1000 | 100-250 ppm | 100 | 50-100 ppm | 5000 | 1000-2500 ppm | 5 | 2.5 | 10 | 2.5 | 25 | 2.5 | 10 | 25 | 2.5 | 10 | 10 | 2.5 | MIC (ppm) against S. entoxylina ([2]; S. entoxylina): 5 ppm; MIC (ppm) against T. viride ([2]; T. viride): 10 ppm; MIC (ppm) against U. atrum ([2]; U. atrum): 10 ppm |
| [O-][S+]1CCON=C1c1nc2ccccc2o1 (stereo not shown) [Compound 81] | 500 | 250-500 ppm | >1000 | 250-500 ppm | 250 | <50 ppm | 2500 | 500-1000 ppm |  |  |  |  |  |  |  |  |  |  |  |  |  |
| N#Cc1ccc(C2=NOCC[S+]2[O-])s1 (stereo not shown) [Compound 57] | 500 | <250 ppm | >1000 | 250-500 ppm | 100 | <50 ppm | 1000 | 500-1000 ppm | 10 | 10 | >25 | 10 | 25 | 10 | 25 | 25 | 10 | 25 | 25 | 10 | MIC (ppm) against S. entoxylina ([2]; S. entoxylina): 10 ppm; MIC (ppm) against T. viride ([2]; T. viride): >25 ppm; MIC (ppm) against U. atrum ([2]; U. atrum): 25 ppm |
| [O-][S+]1CCON=C1c1nc2ccccc2s1 (stereo not shown) [Compound 85, 5,6-dihydro-3-(2-benzothiazolyl)-1,4,2-oxathiazine-4-oxide] | 1000 | <250 ppm | 1000 | 250-500 ppm | 100 | <50 ppm | 2500 | 1000-2500 ppm |  |  |  |  |  |  |  |  |  |  |  |  | MIC [2, 3]: 5 µg/mL (≈ 19.8 µM); MIC [2, 4]: 5 µg/mL (≈ 19.8 µM); MIC [2, 5]: 2.5 µg/mL (≈ 9.91 µM); MIC [2, 6]: 25 µg/mL (≈ 99.1 µM); MIC [2, 7]: 2.5 µg/mL (≈ 9.91 µM); MIC [2, 8]: 25 µg/mL (≈ 99.1 µM); MIC [2, 9]: 25 µg/mL (≈ 99.1 µM); MIC [2, 10]: 10 µg/mL (≈ 39.6 µM); MIC [2, 11]: 10 µg/mL (≈ 39.6 µM); MIC [2, 12]: 10 µg/mL (≈ 39.6 µM); MIC [2, 13]: 25 µg/mL (≈ 99.1 µM); MIC [2, 14]: 2.5 µg/mL (≈ 9.91 µM); MIC [2, 15]: 5 µg/mL (≈ 19.8 µM); MIC [2, 16]: 25 µg/mL (≈ 99.1 µM); MIC [2, 17]: 10 µg/mL (≈ 39.6 µM) |
| O=S1(=O)CCON=C1c1nc2ccccc2s1 [Compound 83, 5,6-dihydro-3-(2-benzothiazolyl)-1,4,2-oxathiazine 4,4-dioxide] |  |  |  |  |  |  |  |  |  |  |  |  |  |  |  |  |  |  |  |  | MIC [2, 3]: > 25 µg/mL; MIC [2, 4]: > 25 µg/mL; MIC [2, 5]: 25 µg/mL (≈ 93.2 µM); MIC [2, 6]: > 25 µg/mL; MIC [2, 7]: 10 µg/mL (≈ 37.3 µM); MIC [2, 8]: > 25 µg/mL; MIC [2, 9]: > 25 µg/mL; MIC [2, 10]: > 25 µg/mL; MIC [2, 11]: > 25 µg/mL; MIC [2, 12]: > 25 µg/mL; MIC [2, 13]: > 25 µg/mL; MIC [2, 14]: 5 µg/mL (≈ 18.6 µM); MIC [2, 15]: 10 µg/mL (≈ 37.3 µM); MIC [2, 16]: > 25 µg/mL; MIC [2, 17]: > 25 µg/mL |
| CCOC(=O)c1ccc(C2=NOCC[S+]2[O-])s1 (stereo not shown) [Compound 54] | 500 | <250 ppm | 500 | 250-500 ppm | 100 | <50 ppm | 5000 | 500-1000 ppm |  |  |  |  |  |  |  |  |  |  |  |  |  |
| CC1CS(=O)(=O)C(c2cccs2)=NO1 (stereo not shown) [Compound 51, 5,6-dihydro-6-methyl-3-(2-thienyl)-1,4,2-oxathiazine-4,4, dioxide] | 500 | 250-500 ppm | >1000 | 250-500 ppm | 100 | 50-100 ppm | 1000 | 500-1000 ppm |  |  |  |  |  |  |  |  |  |  |  |  |  |
